Source: PubChem BioAssay AID328 (DTP/NCI, 2004)
Several values for one entry are separate records, joined by “and”; a condition that tells them apart may be missing. Equal values may be shown once. Inconclusive results and toxic doses are left out.

Tested on: BDF1 mice, P388 leukemia ip, median survival T/C
Test: NCI In Vivo Anticancer Drug Screen. Data for tumor model P388 Leukemia (intraperitoneal) in B6D2F1 (BDF1) mice
Details: endpoint: median survival time, higher = longer survival
Summary of the method: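 Vehicle-dosed animals serve as the reference; survival of compound-dosed, tumour-implanted mice is divided by it.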

[1] = dose: 100.0 mg/kg/injection, schedule: Q04DX003 (ip), vehicle: saline with Tween-80
[2] = dose: 200.0 mg/kg/injection, schedule: Q04DX003 (ip), vehicle: saline with Tween-80
[3] = dose: 400.0 mg/kg/injection, schedule: Q04DX003 (ip), vehicle: saline with Tween-80
[4] = dose: 50.0 mg/kg/injection, schedule: Q04DX003 (ip), vehicle: saline with Tween-80
[5] = dose: 100.0 mg/kg/injection, schedule: Q01DX009 (ip), vehicle: saline with Tween-80
[6] = dose: 200.0 mg/kg/injection, schedule: Q01DX009 (ip), vehicle: saline with Tween-80
[7] = dose: 400.0 mg/kg/injection, schedule: Q01DX009 (ip), vehicle: saline with Tween-80
[8] = dose: 50.0 mg/kg/injection, schedule: Q01DX009 (ip), vehicle: saline
[9] = dose: 100.0 mg/kg/injection, schedule: Q01DX009 (ip), vehicle: saline
[10] = dose: 200.0 mg/kg/injection, schedule: Q01DX009 (ip), vehicle: saline
[11] = dose: 25.0 mg/kg/injection, schedule: Q04DX003 (ip), vehicle: saline with Tween-80
[12] = dose: 25.0 mg/kg/injection, schedule: Q01DX009 (ip), vehicle: saline
[13] = dose: 100.0 mg/kg/injection, schedule: Q01DX009 (ip), vehicle: Klucel (hydroxypropylcellulose) (HPC)
[14] = dose: 200.0 mg/kg/injection, schedule: Q01DX009 (ip), vehicle: Klucel (hydroxypropylcellulose) (HPC)
[15] = dose: 100.0 mg/kg/injection, schedule: Q04DX003 (ip), vehicle: saline

O=[As]c1ccc(Br)cc1 (centres undefined)
T/C (dose: 0.5 mg/kg/injection, schedule: Q01DX009 (ip), vehicle: Klucel (hydroxypropylcellulose) (HPC)): 104 % of control
T/C (dose: 1.0 mg/kg/injection, schedule: Q01DX009 (ip), vehicle: Klucel (hydroxypropylcellulose) (HPC)): 104 % of control
T/C (dose: 2.0 mg/kg/injection, schedule: Q01DX009 (ip), vehicle: Klucel (hydroxypropylcellulose) (HPC)): 104 % of control

Cc1cccc(Cl)c1NC(=O)CCCl
T/C [1]: 90 % of control
T/C [2]: 90 % of control
T/C [3]: 109 % of control

O=C(Cl)c1ccc(N2C(=O)c3ccccc3C2=O)cc1[N+](=O)[O-]
T/C (dose: 50.0 mg/kg/injection, schedule: Q01DX009 (ip), vehicle: saline with Tween-80): 118 % of control
T/C [4]: 96 % of control
T/C [5]: 121 % of control
T/C [1]: 102 % of control
T/C [6]: 115 % of control
T/C [2]: 100 % of control
T/C [7]: 101 % of control
T/C [3]: 105 % of control

CC1(C)N=C(N)N=C(N)N1c1cccc(CCCCc2ccc(Cl)c(S(=O)(=O)F)c2)c1
T/C (dose: 1.8 mg/kg/injection, schedule: Q01DX009 (ip), vehicle: saline): 100 % of control
T/C (dose: 3.13 mg/kg/injection, schedule: Q01DX009 (ip), vehicle: saline): 112 % of control
T/C (dose: 4.0 mg/kg/injection, schedule: Q01DX009 (ip), vehicle: saline): 114 % of control
T/C (dose: 6.0 mg/kg/injection, schedule: Q01DX009 (ip), vehicle: saline): 122 % of control
T/C (dose: 7.0 mg/kg/injection, schedule: Q04DX003 (ip), vehicle: saline): 109 % of control
T/C (dose: 9.0 mg/kg/injection, schedule: Q01DX009 (ip), vehicle: saline): 107 % of control
T/C (dose: 12.5 mg/kg/injection, schedule: Q01DX009 (ip), vehicle: saline): 120 % of control
T/C (dose: 14.0 mg/kg/injection, schedule: Q01DX009 (ip), vehicle: saline): 150 % of control
T/C (dose: 14.0 mg/kg/injection, schedule: Q04DX003 (ip), vehicle: saline): 118 % of control
T/C (dose: 28.0 mg/kg/injection, schedule: Q04DX003 (ip), vehicle: saline): 118 % of control
T/C (dose: 56.0 mg/kg/injection, schedule: Q04DX003 (ip), vehicle: saline): 104 % of control

COc1cc2c(cc1OC)C(CN)C2 (centres undefined)
T/C [8]: 98 % of control
T/C [9]: 96 % of control
T/C [10]: 98 % of control

Cc1nc2c(NC(=O)CCl)nn(C)c2nc1C
T/C [11]: 105 % of control
T/C [4]: 110 % of control
T/C [1]: 95 % of control

COc1cc(C(=O)N2CC2)cc(OC)c1OC
T/C (dose: 3.12 mg/kg/injection, schedule: Q01DX009 (ip), vehicle: water): 108 % of control
T/C (dose: 6.25 mg/kg/injection, schedule: Q01DX009 (ip), vehicle: water): 90 % of control
T/C (dose: 12.5 mg/kg/injection, schedule: Q01DX009 (ip), vehicle: water): 99 % of control
T/C (dose: 25.0 mg/kg/injection, schedule: Q01DX009 (ip), vehicle: water): 101 % of control
T/C (dose: 50.0 mg/kg/injection, schedule: Q01DX009 (ip), vehicle: water): 96 % of control

O=C1NC(c2ccccc2)C(=O)N1CCN(CCCl)CCCl (centres undefined)
T/C (dose: 1.56 mg/kg/injection, schedule: Q01DX009 (ip), vehicle: saline): 114 % of control
T/C (dose: 3.12 mg/kg/injection, schedule: Q01DX009 (ip), vehicle: saline): 105 % of control
T/C [12]: 201 % of control

COC(=O)CCCNC1CCCCC1
T/C (dose: 50.0 mg/kg/injection, schedule: Q01DX001 (ip), vehicle: saline): 107 % of control
T/C (dose: 100.0 mg/kg/injection, schedule: Q01DX001 (ip), vehicle: saline): 114 % of control
T/C (dose: 200.0 mg/kg/injection, schedule: Q01DX001 (ip), vehicle: saline): 102 % of control

CCC(=O)OC(C)COc1ccc(C(C)(C)C)cc1 (centres undefined)
T/C [5]: 110 % of control
T/C [6]: 110 % of control
T/C [7]: 124 % of control

C=C1C(=O)OC2C=C(C)C3C(O)CC(C)(O)C3CC12 (centres undefined)
T/C [13]: 114 % of control
T/C [14]: 102 % of control

CCCCCCCCCCCCNCc1ccc(O)cc1
T/C [11]: 104 % of control
T/C [4]: 100 % of control
T/C [1]: 108 % of control

C/C(CC(c1ccccc1)N1CCc2ccccc2C1)=N/O (centres undefined)
T/C (dose: 100.0 mg/kg/injection, schedule: Q04DX003 (ip), vehicle: saline sonified): 104 % of control
T/C (dose: 200.0 mg/kg/injection, schedule: Q04DX003 (ip), vehicle: saline sonified): 109 % of control
T/C (dose: 400.0 mg/kg/injection, schedule: Q04DX003 (ip), vehicle: saline sonified): 90 % of control

C[n+]1ccc2ccccc2c1
T/C [12]: 100 % of control
T/C [8]: 100 % of control
T/C (dose: 50.0 mg/kg/injection, schedule: Q04DX003 (ip), vehicle: saline): 104 % of control
T/C [9]: 104 % of control
T/C [15]: 100 % of control

COc1c2c(c(OC)c3ccccc13)C(=O)c1ccccc1C2=O
T/C (dose: 25.0 mg/kg/injection, schedule: Q01DX005 (ip), vehicle: saline): 115 % of control
T/C (dose: 50.0 mg/kg/injection, schedule: Q01DX005 (ip), vehicle: saline): 87 % of control
T/C (dose: 100.0 mg/kg/injection, schedule: Q01DX005 (ip), vehicle: saline): 95 % of control
T/C (dose: 200.0 mg/kg/injection, schedule: Q01DX005 (ip), vehicle: saline): 93 % of control

CC(=O)NC1CCCC(O)C1 (centres undefined)
T/C [9]: 90 % of control
T/C [15]: 100 % of control
T/C [10]: 95 % of control
T/C (dose: 200.0 mg/kg/injection, schedule: Q04DX003 (ip), vehicle: saline): 113 % of control
T/C (dose: 400.0 mg/kg/injection, schedule: Q01DX009 (ip), vehicle: saline): 100 % of control
T/C (dose: 400.0 mg/kg/injection, schedule: Q04DX003 (ip), vehicle: saline): 104 % of control

O=C(O)C(O)C(O)C(O)C(O)C(=O)O (centres undefined)
T/C (dose: 50.0 mg/kg/injection, schedule: Q01DX010 (ip), vehicle: saline): 100 % of control
T/C (dose: 100.0 mg/kg/injection, schedule: Q01DX010 (ip), vehicle: saline): 109 % of control
T/C (dose: 200.0 mg/kg/injection, schedule: Q01DX010 (ip), vehicle: saline): 100 % of control
T/C (dose: 400.0 mg/kg/injection, schedule: Q01DX010 (ip), vehicle: saline): 104 % of control
T/C (dose: 600.0 mg/kg/injection, schedule: Q01DX010 (ip), vehicle: saline): 88 % of control
T/C (dose: 750.0 mg/kg/injection, schedule: Q01DX010 (ip), vehicle: saline): 88 % of control

COC(=O)Nc1nc2ccc(Br)cc2[nH]1
T/C [13]: 104 % of control
T/C (dose: 100.0 mg/kg/injection, schedule: Q04DX003 (ip), vehicle: Klucel (hydroxypropylcellulose) (HPC)): 109 % of control
T/C [14]: 112 % of control
T/C (dose: 200.0 mg/kg/injection, schedule: Q04DX003 (ip), vehicle: Klucel (hydroxypropylcellulose) (HPC)): 109 % of control
T/C (dose: 400.0 mg/kg/injection, schedule: Q01DX009 (ip), vehicle: Klucel (hydroxypropylcellulose) (HPC)): 116 % of control
T/C (dose: 400.0 mg/kg/injection, schedule: Q04DX003 (ip), vehicle: Klucel (hydroxypropylcellulose) (HPC)): 113 % of control

CC(C)(C)OC(=O)N1Cc2cc3ccccc3nc2C1
T/C [4]: 100 % of control
T/C [1]: 118 % of control
T/C [2]: 109 % of control

NC(=NCCCC(NC(=O)OCc1ccccc1)C(=O)NC(Cc1ccccc1)C(=O)OCc1ccccc1)NC(=O)OCc1ccccc1 (centres undefined)
T/C (dose: 12.5 mg/kg/injection, schedule: Q01DX005 (ip), vehicle: saline with Tween-80): 92 % of control
T/C (dose: 25.0 mg/kg/injection, schedule: Q01DX005 (ip), vehicle: saline with Tween-80): 92 % of control
T/C (dose: 50.0 mg/kg/injection, schedule: Q01DX005 (ip), vehicle: saline with Tween-80): 90 % of control and 101 % of control
T/C (dose: 100.0 mg/kg/injection, schedule: Q01DX005 (ip), vehicle: saline with Tween-80): 97 % of control
T/C (dose: 200.0 mg/kg/injection, schedule: Q01DX005 (ip), vehicle: saline with Tween-80): 107 % of control

CC(=O)O[C@H]1CC[C@H]2[C@@H]3[C@H](C)CC4=CC(=O)CCC4[C@H]3CC[C@]12C (some centres undefined)
T/C [5]: 95 % of control
T/C [1]: 100 % of control
T/C [6]: 90 % of control
T/C [2]: 95 % of control
T/C [7]: 100 % of control
T/C [3]: 100 % of control
